Here are results for four molecules from patent US20260374766A1, “METHODS FOR TREATING CANCER” (Antares Therapeutics, Inc., priority 2022, published 2026).

The test system of one test is H1299 p53 R273H. Kind of test: Cell Proliferation Assay (CellTiter-Glo, CTG), H1299 p53 R273H (NClH1299-inducible p53 R273H). The test is classed as cell-based. As to conditions: Homo sapiens, NCI-H1299, 120 h, CellTiter-Glo, H1299 p53 R273H, 5 days. The essentials:
(§1)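 Cells seeded at 250-500 per well and exposed to compound for 5 days. Viability read by CellTiter-Glo luminescence after 10 min at room temperature; IC50 calculated. H1299 lines carry Tet-One inducible p53 mutant constructs introduced by lentiviral transduction.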
In general terms: Cellular ATP, detected with luciferase, serves as a proxy for viable cell number.

In the next test the target is p53 Y220C (Homo sapiens, UniProt P04637, Y220C). Put plainly: Luciferase Reporter Assay (Luc), p53 response element, NClH1299 cells with inducible p53 Y220C. To be noted: luciferase reporter, NClH1299 inducible p53 Y220C, 6 hour; for Emax: 10 uM tool compound as positive control; for AC50: read-out: Luc P53 Y220C AC50. Type of test: cell-based. The essentials: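 Luciferase activity is measured directly after One-Glo addition and a 5-minute room-temperature shake. Before that, cells plated at 5,000 per well receive doxycycline at 0.5 ug/mL for 24 hours, followed by compound for 6 hours.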

Test [1] deals with T1, p53 Y220C mutant protein (amino acid residues 94-293) (Homo sapiens, UniProt P04637, Y220C).
T1 construct: p53 Y220C mutant protein (amino acid residues 94-293)
Kind of test: Thermal Shift Assay (TSA), dTM. Type of test: binding. To be noted: thermal shift; for ΔTm at 10 µM: 10 uM compound, read-out: TSA P53 Y220C dTM (10 uM); for ΔTm at 100 µM: 100 uM compound, read-out: TSA P53 Y220C dTM (100 uM). The gist of the method:
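First, the mutant DNA-binding domain (5 μM) was preincubated 3 hours at 20 °C with compound at 10 μM or 100 μM. Next, the sample was heated from 30 °C to 50 °C at 0.03 °C/second in the presence of Sypro Orange. Finally, TM was obtained from a two-state Boltzmann fit.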

For another test, the system named is H1299 p53 Y220C. Put plainly: Cell Proliferation Assay (CellTiter-Glo, CTG), H1299 p53 Y220C (NClH1299-inducible p53 Y220C). Type of test: cell-based. As to conditions: Homo sapiens, NCI-H1299, 120 h, CellTiter-Glo, H1299 p53 Y220C, 5 days. The gist of the method:
as §1

The next test deals with NUGC3 p53 Y220C. Kind of test: Cell Proliferation Assay (CellTiter-Glo, CTG), NUGC3 p53 Y220C. To be noted: Homo sapiens, NUGC-3, 120 h, CellTiter-Glo, NUGC3 p53 Y220C, 5 days. The test is classed as cell-based. The essentials:
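NClH1299 lines stably transduced with Tet-inducible p53 Y220C or R273H, plus NUGC3, were treated with compound for 5 days at 250-500 cells/well. IC50 derived from CellTiter-Glo luminescent signal after 10 min room-temperature incubation.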

Test [2] deals with T1, p53 Y220C mutant protein (amino acid residues 94-293). Kind of test: Surface Plasmon Resonance (SPR) assay, Kd_kinetic. The test is classed as binding. As to conditions: SPR, kinetic KD, p53 Y220C; read-out: SPR P53 Y220C KD kinetic. The gist of the method: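 Binding measured by SPR on a Biacore 8K in running buffer of 50 mM Tris pH 7.5, 100 mM NaCl, 1 mM DTT, 0.01% Brij35, 0.05% Tween-20, 1% DMSO.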

On to `CNC(=O)c1ccc(NCC#Cc2nc3c(N[C@H]4CCc5nncn5C4)cccn3c2SC(F)(F)F)c(OC)c1` [Example 191], for which the IC50 with H1299 p53 R273H was at least 10000 nM; in the test with H1299 p53 Y220C it was above 3000 nM; with NUGC3 p53 Y220C, above 3000 nM. Besides, at p53 Y220C, the maximal response (Emax) is below 70%. Further, the AC50 at p53 Y220C is above 3000 nM. The ΔTm at 10 µM in test [1] lay within 5 to 10 °C. The ΔTm at 100 µM in test [1] was at least 10 °C. Moreover, the Kd in test [2] is below 10 nM.

Consider `CNC(=O)c1ccc(NCC#Cc2cc3c(N[C@@H]4CCN(C)C[C@@H]4F)nccn3c2SC(F)F)c(OC)c1` [Example 196, 4-[(3-{6-[(difluoromethyl)sulfanyl]-1-{[(3S,4R)-3-fluoro-1-methylpiperidin-4-yl]amino}pyrrolo[1,2-a]pyrazin-7-yl}prop-2-yn-1-yl)amino]-3-methoxy-N-methylbenzamide; formic acid], for which, in the test on H1299 p53 R273H, the IC50 is at least 10000 nM. At p53 Y220C, the Emax is above 90% and the AC50 is below 750 nM. Besides, in test [1], the ΔTm at 10 µM was at least 10 °C and the ΔTm at 100 µM was at least 10 °C. Also, in the test on H1299 p53 Y220C, the IC50 was below 750 nM. For the same molecule, the IC50 with NUGC3 p53 Y220C is below 750 nM. In test [2], the Kd is below 10 nM.

As for `CNC(=O)c1ccc(NCC#Cc2nc3c(N[C@H]4CCN(C)CC4(F)F)cccn3c2CC(F)(F)F)c(OC)c1` (single isomer, unassigned) [Example 38], the IC50 in the test on H1299 p53 R273H was at least 10000 nM; in the test with H1299 p53 Y220C, above 3000 nM; in the test on NUGC3 p53 Y220C, above 3000 nM. This molecule registered an Emax on p53 Y220C below 70%. The AC50 on p53 Y220C is above 3000 nM. The ΔTm at 100 µM in test [1] was in the range of 5 to 10 °C. In test [2], the dissociation constant Kd is above 1000 nM.

Regarding `CNC(=O)c1cc(OC)c(NCC#Cc2nc3c(N[C@@H]4CCN(C)C[C@@H]4F)cccn3c2CC(F)(F)F)cc1Cl` [Example 111, 2-chloro-4-{[3-(8-{[(3S,4R)-3-fluoro-1-methylpiperidin-4-yl]amino}-3-(2,2,2-trifluoroethyl)imidazo[1,2-a]pyridin-2-yl)prop-2-yn-1-yl]amino}-5-methoxy-N-methylbenzamide], the 50% inhibitory concentration (IC50) was at least 10000 nM in the test with H1299 p53 R273H, 750 to 1500 nM in the test on H1299 p53 Y220C and 750 to 1500 nM in the test on NUGC3 p53 Y220C. On p53 Y220C, the Emax is above 90%. Also, on p53 Y220C, the half-maximal activity concentration (AC50) is 750 to 1500 nM. In test [1], the ΔTm at 100 µM is at least 10 °C. Also, in test [2], the Kd was below 10 nM.

By IC50 is commonly meant the concentration needed to halve the response being measured. A higher IC50 goes with a need for much substance. The Emax is the maximal effect, on the per cent scale that the assay sets. As a reminder, the AC50 is the concentration at which the activity in the assay is half-maximal. By Kd is commonly meant the free concentration of one partner at which half of the binding sites on the other are occupied at equilibrium, for simple one-to-one binding.
